In ChEMBL document CHEMBL1201862, “PubChem BioAssay data set” (2004):
Activity calls are given as the source filed them.

Tests used:
Troponin, cardiac muscle = Troponin, cardiac muscle (Homo sapiens, UniProt P19429+P45379+P63316); assay: Fluorescence-based biochemical high throughput dose response assay for activators of the calcium sensitivity of cardiac Regulated Thin Filaments (RTF). [Related pubchem assays (depositor defined):AID493008, AID493018, AID504382, AID504383]; assay type: protein-complex assay
HEK293 [1] = assay: cells; assay type: functional, cell-based; conditions: Homo sapiens
HEK293 [2] = assay: NOD1 signaling inhibitors, primary screen, cell-based, luminescence, uHTS (AID 1578); assay type: functional; conditions: Homo sapiens
[3] = target: Nucleotide-binding oligomerization domain-containing protein 2 (Homo sapiens, UniProt Q9HC29); assay: NOD2 signaling inhibitors, cell-based, luminescence, uHTS, HEK293 (AID 1566); assay type: functional
HEK293 [4] = assay: cells; assay type: functional, cell-based; conditions: Homo sapiens; remark: listed apart in the source
HEK293 [5] = assay: cells; assay type: functional, cell-based; conditions: Homo sapiens; remark: listed apart in the source
HEK293 [6] = assay: NOD2 signaling inhibitors in MDP-stimulated cells, cell-based, uHTS, luminescence (AID 2001); assay type: functional; conditions: Homo sapiens
Coagulation factor XII = target: T1, Coagulation factor XII (Homo sapiens, UniProt P00748); assay type: functional;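 note: activated factor XIIa alpha cleaving a fluorogenic AMC peptide substrate; inhibitor potency from loss of enzyme activity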
T1 sequence (P00748 whole entry): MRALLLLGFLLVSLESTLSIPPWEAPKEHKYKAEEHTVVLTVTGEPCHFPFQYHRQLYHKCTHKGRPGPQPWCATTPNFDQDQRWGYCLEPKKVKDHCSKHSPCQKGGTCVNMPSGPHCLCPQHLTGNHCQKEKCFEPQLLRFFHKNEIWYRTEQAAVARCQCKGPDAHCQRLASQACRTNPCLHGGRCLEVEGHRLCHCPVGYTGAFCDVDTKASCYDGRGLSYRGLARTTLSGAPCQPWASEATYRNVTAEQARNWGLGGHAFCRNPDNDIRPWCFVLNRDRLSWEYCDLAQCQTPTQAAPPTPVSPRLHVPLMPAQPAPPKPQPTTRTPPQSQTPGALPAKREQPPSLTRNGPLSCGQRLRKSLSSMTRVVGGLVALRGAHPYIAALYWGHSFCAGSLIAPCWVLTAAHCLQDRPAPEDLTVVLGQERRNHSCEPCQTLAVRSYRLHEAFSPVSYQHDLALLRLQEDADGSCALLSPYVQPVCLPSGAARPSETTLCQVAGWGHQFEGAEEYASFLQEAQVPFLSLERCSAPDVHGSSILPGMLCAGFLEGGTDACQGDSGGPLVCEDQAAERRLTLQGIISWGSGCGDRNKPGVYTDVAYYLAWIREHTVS

Bcl-2-related protein A1 = target: T2, Bcl-2-related protein A1 (Mus musculus, UniProt Q07440); assay type: functional;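 note: confirmatory dose–response counterscreen on Bfl-1, used to check hits from a UBC13 polyubiquitin inhibitor campaign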
T2 sequence (Q07440 whole entry): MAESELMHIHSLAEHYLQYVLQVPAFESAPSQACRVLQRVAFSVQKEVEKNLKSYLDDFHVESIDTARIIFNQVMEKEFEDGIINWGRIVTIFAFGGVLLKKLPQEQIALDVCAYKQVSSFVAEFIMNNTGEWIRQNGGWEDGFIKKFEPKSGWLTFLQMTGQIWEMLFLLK

[7] = target: T3, Ubiquitin-conjugating enzyme E2 N (Homo sapiens, UniProt P61088); assay type: functional
T3 sequence (P61088 whole entry): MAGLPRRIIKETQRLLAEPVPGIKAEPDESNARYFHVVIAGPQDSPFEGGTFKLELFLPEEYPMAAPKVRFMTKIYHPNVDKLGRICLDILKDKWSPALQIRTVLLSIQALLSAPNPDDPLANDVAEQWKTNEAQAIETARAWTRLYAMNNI

[8] = target: T4, Heat shock factor protein 1 (Mus musculus, UniProt P38532); assay: inhibition of MG132-induced HSE-luciferase signal, confirmation, cell-based, NIH3T3, luminescence, dose retest (AID 2382); assay type: functional;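 note: NIH3T3 fibroblasts with HSF1-driven luciferase reporter stressed by proteasome inhibitor MG132; luminescence from HSF1-driven luciferase expression after 8 hours of MG132 stress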
T4 sequence (P38532 whole entry): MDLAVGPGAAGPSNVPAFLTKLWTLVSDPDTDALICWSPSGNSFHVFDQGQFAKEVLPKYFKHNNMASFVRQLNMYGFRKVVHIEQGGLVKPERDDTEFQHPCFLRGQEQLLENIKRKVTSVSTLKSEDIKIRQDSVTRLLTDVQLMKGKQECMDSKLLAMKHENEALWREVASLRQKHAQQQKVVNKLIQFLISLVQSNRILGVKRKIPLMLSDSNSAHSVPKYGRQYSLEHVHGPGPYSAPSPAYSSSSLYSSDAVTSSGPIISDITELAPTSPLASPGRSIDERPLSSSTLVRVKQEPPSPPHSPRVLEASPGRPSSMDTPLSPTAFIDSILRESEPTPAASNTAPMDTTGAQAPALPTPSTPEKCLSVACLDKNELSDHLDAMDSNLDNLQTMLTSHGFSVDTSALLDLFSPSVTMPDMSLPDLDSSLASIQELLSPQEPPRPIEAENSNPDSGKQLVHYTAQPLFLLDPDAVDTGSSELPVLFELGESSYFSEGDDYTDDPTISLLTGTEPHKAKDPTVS

[9] = target: T3, Ubiquitin-conjugating enzyme E2 N; assay type: functional; remark: listed apart in the source
Protein RecA = target: T5, Protein RecA (Mycobacterium tuberculosis, UniProt P9WHJ3); assay: Fluorescence Cell-Free Homogeneous Dose Retest to Identify Inhibitors of RecA-Intein Splicing Activity. [Related pubchem assays (depositor defined):AID2097, AID2223, AID489010, AID492950]; assay type: functional
T5 sequence (P9WHJ3 whole entry): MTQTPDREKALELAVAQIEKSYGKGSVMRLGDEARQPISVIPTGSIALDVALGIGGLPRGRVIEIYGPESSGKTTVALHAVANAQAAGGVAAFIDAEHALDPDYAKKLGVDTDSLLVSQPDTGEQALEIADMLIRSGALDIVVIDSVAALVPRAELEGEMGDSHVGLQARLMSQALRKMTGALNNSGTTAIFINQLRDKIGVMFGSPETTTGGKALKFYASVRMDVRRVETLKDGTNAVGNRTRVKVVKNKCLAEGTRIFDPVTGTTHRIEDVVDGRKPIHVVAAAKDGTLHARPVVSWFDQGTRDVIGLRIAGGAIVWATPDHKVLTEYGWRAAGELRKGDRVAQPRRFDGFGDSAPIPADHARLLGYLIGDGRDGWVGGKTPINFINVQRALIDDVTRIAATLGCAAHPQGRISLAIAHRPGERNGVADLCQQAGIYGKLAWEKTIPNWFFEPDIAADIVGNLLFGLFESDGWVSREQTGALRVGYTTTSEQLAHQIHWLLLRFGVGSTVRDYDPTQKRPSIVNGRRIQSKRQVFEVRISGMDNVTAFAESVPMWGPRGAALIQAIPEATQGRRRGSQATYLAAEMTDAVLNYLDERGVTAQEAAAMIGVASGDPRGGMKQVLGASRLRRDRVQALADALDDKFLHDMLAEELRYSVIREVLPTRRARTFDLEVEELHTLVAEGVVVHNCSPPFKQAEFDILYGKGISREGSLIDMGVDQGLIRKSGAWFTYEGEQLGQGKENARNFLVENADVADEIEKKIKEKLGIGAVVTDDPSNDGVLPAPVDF

[10] = target: T6, Replicative DNA helicase DnaB (Mycobacterium tuberculosis, UniProt P9WMR3); assay: DnaB intein splicing inhibitors, dose response, biochemical, cell-free fluorescence (AID 449749); assay type: functional
T6 sequence (P9WMR3 whole entry): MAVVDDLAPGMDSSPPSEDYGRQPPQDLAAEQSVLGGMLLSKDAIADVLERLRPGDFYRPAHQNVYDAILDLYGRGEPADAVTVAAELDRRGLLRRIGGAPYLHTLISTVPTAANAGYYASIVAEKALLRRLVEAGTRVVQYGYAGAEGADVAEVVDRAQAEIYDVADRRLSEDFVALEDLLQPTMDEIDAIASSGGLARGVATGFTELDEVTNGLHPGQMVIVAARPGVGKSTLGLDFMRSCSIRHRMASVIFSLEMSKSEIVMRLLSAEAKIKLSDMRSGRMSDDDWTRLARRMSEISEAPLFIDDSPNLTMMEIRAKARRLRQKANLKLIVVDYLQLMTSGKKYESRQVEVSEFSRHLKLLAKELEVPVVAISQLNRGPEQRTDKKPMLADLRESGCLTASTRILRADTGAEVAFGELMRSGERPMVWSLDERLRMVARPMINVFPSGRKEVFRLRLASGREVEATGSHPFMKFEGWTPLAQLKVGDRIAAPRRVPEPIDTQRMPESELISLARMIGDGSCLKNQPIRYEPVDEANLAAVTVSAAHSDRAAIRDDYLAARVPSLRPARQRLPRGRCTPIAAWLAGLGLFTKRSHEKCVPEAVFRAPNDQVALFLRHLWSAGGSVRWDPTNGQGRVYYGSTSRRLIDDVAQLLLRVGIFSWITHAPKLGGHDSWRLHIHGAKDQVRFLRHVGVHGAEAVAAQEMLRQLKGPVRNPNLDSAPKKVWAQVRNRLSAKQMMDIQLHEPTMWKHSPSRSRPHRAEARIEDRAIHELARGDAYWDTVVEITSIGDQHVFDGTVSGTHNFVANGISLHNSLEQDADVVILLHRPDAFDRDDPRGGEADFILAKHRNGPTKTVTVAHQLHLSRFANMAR

[11] = target: T7, Short transient receptor potential channel 4 (Mus musculus, UniProt Q9QUQ5); assay: mouse TRPC4 channel activators, dose response, cell-based, HEK293 TRPC4/mu-opioid, Fluo-4 calcium (AID 434937); assay type: functional
T7 sequence (Q9QUQ5 whole entry): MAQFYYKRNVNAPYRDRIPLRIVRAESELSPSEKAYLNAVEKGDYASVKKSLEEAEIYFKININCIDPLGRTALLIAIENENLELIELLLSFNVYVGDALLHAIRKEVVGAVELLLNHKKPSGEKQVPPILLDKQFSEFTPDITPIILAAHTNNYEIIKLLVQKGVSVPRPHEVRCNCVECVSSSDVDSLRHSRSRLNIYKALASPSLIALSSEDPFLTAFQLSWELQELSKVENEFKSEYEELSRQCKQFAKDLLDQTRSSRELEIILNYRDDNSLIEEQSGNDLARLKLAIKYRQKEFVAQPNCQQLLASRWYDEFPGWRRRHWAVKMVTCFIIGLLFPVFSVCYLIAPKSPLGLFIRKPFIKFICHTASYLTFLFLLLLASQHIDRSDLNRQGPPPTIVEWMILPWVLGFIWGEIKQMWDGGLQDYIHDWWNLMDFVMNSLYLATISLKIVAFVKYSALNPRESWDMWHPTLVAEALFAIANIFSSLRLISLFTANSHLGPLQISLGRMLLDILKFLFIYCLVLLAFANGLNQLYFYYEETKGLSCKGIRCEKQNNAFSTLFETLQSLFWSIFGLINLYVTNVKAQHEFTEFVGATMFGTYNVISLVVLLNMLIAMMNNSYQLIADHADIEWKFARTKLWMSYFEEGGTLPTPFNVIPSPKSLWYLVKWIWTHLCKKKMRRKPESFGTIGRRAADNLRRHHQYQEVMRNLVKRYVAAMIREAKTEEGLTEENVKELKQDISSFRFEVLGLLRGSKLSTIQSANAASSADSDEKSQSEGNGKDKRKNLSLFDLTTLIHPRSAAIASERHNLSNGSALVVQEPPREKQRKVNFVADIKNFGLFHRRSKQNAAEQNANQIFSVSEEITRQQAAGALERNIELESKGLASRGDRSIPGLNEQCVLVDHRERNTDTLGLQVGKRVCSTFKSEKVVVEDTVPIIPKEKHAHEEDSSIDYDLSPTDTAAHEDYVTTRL

INS1 = assay: beta cell apoptosis inhibitors, cytokine rescue, dose response, luminescence, retest (AID 449756); assay type: functional, cell-based; conditions: Rattus norvegicus;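 note: cell death triggered by IL-1 beta plus TNF-alpha plus IFN-gamma mixture; protective hits raise ATP signal compared with cytokine alone wells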

SMILES: CC(C)CNC(=S)NC(=O)c1ccccc1Cl
- EC50 (Troponin, cardiac muscle): > 71.4 µM (inactive)

SMILES: CCCCn1c(SCC(=O)N2CCN(c3ccccc3)CC2)nc2ccsc2c1=O
- IC50 (HEK293 [1]): 11.5 µM (active)
- EC50 (HEK293 [2]): 9.68 µM (active)
- EC50 [3]: 4.06 µM (active)
- IC50 (HEK293 [4]): > 20 µM (inactive)
- IC50 (HEK293 [5]): > 20 µM (inactive)
- IC50 (HEK293 [6]): 8.34 µM (active)

SMILES: N#Cc1c2n(c3c(=O)n(Cc4ccccc4)cnc13)CCCC2
- IC50 (Coagulation factor XII): > 50 µM (inactive)

SMILES: COC(=O)c1ccc(S(=O)(=O)N2CCC(O)CC2)n1C
- EC50 (Troponin, cardiac muscle): > 71.4 µM (inactive)

SMILES: CCCC(C(=O)NC(C)(C)C)N(C(=O)c1snc(C(N)=O)c1N)c1ccc2c(c1)OCCO2 (centres undefined)
- IC50 (Bcl-2-related protein A1): > 20 µM (inactive)
- IC50 [7]: 8.3 µM (active)
- EC50 [8]: 1.58 µM (active)
- IC50 [9]: 10.2 µM (active)

SMILES: O=C(c1[nH]ncc1-c1ccc(Cl)cc1)C1CO1 (centres undefined)
- EC50 (Protein RecA): 20.9 µM (active)
- EC50 [3]: > 20 µM (inactive)
- AC50 [10]: 31.7 µM (active)

SMILES: Cc1ccc(-n2ncc3c(O)ncnc32)c(C)c1
- IC50 (Coagulation factor XII): > 50 µM (inactive)

SMILES: O=[N+]([O-])c1ccc2c(c1)c1ccccc1n2CCO
- IC50 (Coagulation factor XII): > 50 µM (inactive)

SMILES: O=C(NCC1CCN(Cc2cccc(Cl)c2)CC1)C1CCCN(c2ncnc3c2nc2n3CCCCC2)C1 (centres undefined)
- IC50 (Bcl-2-related protein A1): > 20 µM (inactive)
- IC50 [7]: 3.87 µM (active)
- IC50 [9]: 1.89 µM (active)

SMILES: Cc1ccc(C(C)C)c(OCc2ccc(-c3nnco3)cc2)c1
- IC50 (HEK293 [1]): 15.2 µM (active)
- EC50 (HEK293 [2]): 13.2 µM (active)
- EC50 [3]: 14.6 µM (active)
- IC50 (HEK293 [4]): > 20 µM (inactive)
- IC50 (HEK293 [5]): > 20 µM (inactive)
- IC50 (HEK293 [6]): > 20 µM (inactive)

SMILES: CN(C)CCCN(C(=O)c1ccc(S(=O)(=O)N(C)Cc2ccccc2)cc1)c1nc2cc3c(cc2s1)OCO3
- IC50 (Bcl-2-related protein A1): > 20 µM (inactive)
- EC50 [11]: 9.44 µM (active)
- IC50 [7]: 11.5 µM (active)
- AC50 (INS1): > 120 µM (inactive)
- IC50 [9]: 5.54 µM (active)

SMILES: COC(=O)c1ccc(NCC(=O)Nc2cc(C)cc(C)c2)cc1
- IC50 (Coagulation factor XII): > 50 µM (inactive)

SMILES: CCN(CC)C(=S)SCC(=O)c1c(C)[nH]c2ccccc12
- EC50 (Troponin, cardiac muscle): > 71.5 µM (inactive)
